# Assay results reported in patent publication US20110142961A1, “METHODS AND REAGENTS FOR PREDICTING CLINICAL OUTCOME AND CUSTOMIZING CHEMOTHERAPY IN LUNG CANCER PATIENTS” (Pangaea Biotech S.A., priority 2008, published 2011).
# Test system: metastatic NSCLC (patients with lung adenocarcinoma or large-cell carcinoma)
# Experiment: Customized treatment of metastatic NSCLC according to EGFR mutations and BRCA1 mRNA levels: survival
# Assay type: in vivo
# Details: median follow-up of 10 months
# Method: Background: A study was carried out wherein treatment of metastatic NSCLC was customized according to the presence of EGFR mutations and BRCA1 mRNA levels.
# Methods: 93 patients with lung adenocarcinoma or large-cell carcinoma were screened for EGFR Δ746-750 deletion and L858R mutation and BRCA1 mRNA expression. 15 patients with the L858R mutation in the EGFR gene received erlotinib; 78 patients without the L858R mutation in the EGFR gene received chemotherapy according to BRCA1 levels (low: gemcitabine/cisplatin; intermediate: docetaxel/cisplatin; high: docetaxel alone). In addition, Abraxas and RAP80 mRNA expression were examined in 60/78 patients without the L858R mutation. The features of the patients are collected in Tables I and II.
molecule,measurement,setting,value
CC(=O)O[C@@]12CO[C@@H]1C[C@H](O)[C@@]1(C)C(=O)[C@H](O)C3=C(C)[C@@H](OC(=O)[C@H](O)[C@@H](NC(=O)OC(C)(C)C)c4ccccc4)C[C@@](O)([C@@H](OC(=O)c4ccccc4)[C@H]21)C3(C)C [docetaxel],median survival,12 patients with high BRCA1 levels (received docetaxel alone),11 months
C#Cc1cccc(Nc2ncnc3cc(OCCOC)c(OCCOC)cc23)c1 [erlotinib],median survival,11 patients with EGFR mutations (received erlotinib),not reached
docetaxel/cisplatin,median survival,34 patients with intermediate BRCA1 levels (received docetaxel/cisplatin),9 months
gemcitabine/cisplatin,median survival,32 patients with low BRCA1 levels (received gemcitabine/cisplatin),not reached
